Patent US5650411A, “Substituted azolone derivatives” (Janssen Pharmaceutica N.V., priority 1993, dated 1997)
Values after ≈ are worked out from the molar mass of the structure shown.

Test system: Helicobacter pylori
Test: Minimal inhibitory concentration (MIC) against Helicobacter pylori, urease read-out, 5 clinical strains
Format: cell-based
Details: 5 H. pylori clinical strains, 10% blood agar, 48 h at 37° C., microaerophilic, read-out: MIC
Experimental: The anti-Helicobacter activity of the subject compounds was assessed by the following in-vitro test procedure.
The activity of test compounds against Helicobacter pylori was determined against a standard set of 5 H. priori strains obtained from clinical material. Minimal inhibitory concentrations (MICs) were determined by measuring the activity of H. pylori urease after treatment of growing cultures of the bacteria with the antimicrobial agents.
The test compounds were dissolved in DMSO at a concentration of 10^-3 M. A dilution to 10^-4 M in DMSO was also prepared. 10 μl volumes of these solutions were pipetted in the wells of Repli-Dishes (®Sterilin). Wells containing DMSO alone were included as controls in each Repli-Dish. Ampicillin ((+)-6-[(2-amino-2-phenylacetyl)amino]-3,3-dimethyl-7-oxo-4-thia-1-azabicyclo[3.2.0]heptane-2-carboxylic acid trihydrate) and metronidazole (2-methyl-5-nitro-1H-imidazol-1-ethanol) were included as reference compounds in each batch of tests. (These compounds were tested at final concentrations of 10^-5, 10^-6, 10^-7 and 10^-8 M). Test plates were stored at 4° C. until used. The five isolates of H. pylori were maintained by subculture on 10% blood agar every 2 or 3 days. The bacteria were grown at 37° C. under an atmosphere containing 5% oxygen, 10% CO2 and 85% nitrogen. Suspensions of Helicobacter pylori for inoculum were prepared in Brain-heart infusion broth and adjusted to an absorbance of 1.5±0.3 at […].
Freshly prepared 10% blood agar held at 45° C. was added in 1 ml volumes to the wells of the test plates, thus diluting the test compounds to 10^-5 and 10^-6 M. The medium was allowed to cool, then 10 μl volumes of bacterial suspension were pipetted on the agar surface. The plates were incubated for 48 h at 37° C. under the microaerophilic atmosphere described above. […] After the 48 h of incubation, 1 ml volumes of urease broth were gently added to each Repli-Dish well and the plates were incubated at 37° C. for 2 h. 100 μl samples of fluid from each well were then pipetted into the wells of 96-place microdilution plates. A purple colour was interpreted as growth, yellow-orange as no growth of H. pylori. By this means a clear end-point was obtained, from which the inhibitory effects could be determined.
Table 1 summarizes the MIC values determined by the above procedure for a subset of the subject compounds.

CCC[C@H]([C@H](O)c1ccc(Cl)cc1)n1ncn(-c2ccc(N3CCN(c4cccc(OC)c4)CC3)nc2)c1=O (relative stereo) [compound 40, (±)-(R* ,R*)-2-[1-[(4-chlorophenyl)hydroxymethyl]butyl]-2,4-dihydro-4-[6-[4-(3-methoxyphenyl)-1-piperazinyl]-3-pyridinyl]-3H-1,2,4-triazol-3-one]
MIC: 0.1 µM (≈ 0.0549 µg/mL)

Cc1nn(C(C)(C)C(O)c2ccc(Br)cc2)c(=O)n1-c1ccc(N2CCN(c3ccc(O)cc3)CC2)cc1 (racemic) [compound 22, (±)-2-[2-(4-bromophenyl)-2-hydroxy-1,1-dimethylethyl]-2,4-dihydro-4-[4-[4-(4-hydroxyphenyl)-1-piperazinyl]phenyl]-5-methyl-3H-1,2,4-triazol-3-one]
MIC: 1 µM (≈ 0.579 µg/mL)

Cc1cc(N2CCN(c3ccc(-n4c(C)nn([C@H](C)[C@H](O)c5ccc(Cl)cc5Cl)c4=O)cc3)CC2)cc(C)c1O (single isomer, unassigned) [compound 32, (+)-(R*,R*)-2-[2-(2,4-dichlorophenyl)-2-hydroxy-1-methylethyl]-2,4-dihydro-4-[4-[4-(4-hydroxy-3,5-dimethylphenyl)-1-piperazinyl]phenyl]-5-methyl-3H-1,2,4-triazol-3-one dihydrate]
MIC: 1 µM

CC(C)(C(O)c1ccc(Br)cc1)n1ncn(-c2ccc(N3CCN(c4ccc(O)cc4)CC3)cc2)c1=O (racemic) [compound 21, (±)-2-[2-(4-bromophenyl)-2-hydroxy-1,1-dimethylethyl]-2,4-dihydro-4-[4-[4-(4-hydroxyphenyl)-1-piperazinyl]phenyl]-3H-1,2,4-triazol-3-one]
MIC: 0.1 µM (≈ 0.0564 µg/mL)

CCC(C(=O)c1ccc(Cl)cc1)n1ncn(-c2ccc(N3CCN(c4ccc(OC)cc4)CC3)cc2)c1=O (single isomer, unassigned; (+)) [compound 31, (+)-(A)-2-[1-(4-chlorobenzoyl)propyl]-2,4-dihydro-4-[4-[4-(4-methoxyphenyl)-1-piperazinyl]phenyl]-3H-1,2,4-triazol-3-one]
MIC: 1 µM (≈ 0.532 µg/mL)

CC(C(O)c1ccc(Cl)cc1)n1ccn(-c2ccc(N3CCN(c4ccc(O)cc4)CC3)cc2)c1=O (stereo not shown) [compound 12, 1-[2-(4-chlorophenyl)-2-hydroxy-1-methylethyl]-1,3-dihydro-3-[4-[4-(4-hydroxy-phenyl)-1-piperazinyl]phenyl]-2H-imidazol-2-one]
MIC: 0.1 µM (≈ 0.0505 µg/mL)

Cc1cn(C(C)C(O)c2ccc(Cl)cc2)c(=O)n1-c1ccc(N2CCN(c3ccc(O)cc3)CC2)cc1 (stereo not shown) [compound 11, 1-[2-(4-chlorophenyl)-2-hydroxy-1-methylethyl]-1,3-dihydro-3-[4-[4-(4-hydroxyphenyl)-1-piperazinyl]phenyl]-4-methyl-2H-imidazol-2-one]
MIC: 1 µM (≈ 0.519 µg/mL)

CCC(C(=O)c1ccc(Cl)cc1)n1ncn(-c2ccc(N3CCN(c4ccc(OC)nc4)CC3)cc2)c1=O (racemic) [compound 6, (±)-2-[1-(4-chlorobenzoyl)propyl]-2,4-dihydro-4-[4-[4-(6-methoxy-3-pyridinyl)-1-piperazinyl]phenyl]-3H-1,2,4-triazol-3-one]
MIC: 0.1 µM (≈ 0.0533 µg/mL)

CCC(C(=O)c1ccc(Cl)cc1)n1ncn(-c2ccc(N3CCN(c4ccc(OC)cn4)CC3)nc2)c1=O (racemic) [compound 37, (±)-2-[1-(4-chlorobenzoyl)propyl]-2,4-dihydro-4-[6-[4-(5-methoxy-2-pyridinyl) -1-piperazinyl]-3-pyridinyl]-3H-1,2,4-triazol-3-one]
MIC: 0.1 µM (≈ 0.0534 µg/mL)

CCC(C(=O)c1ccc(Cl)cc1)n1ncn(-c2ccc(N3CCC(c4cccc(OC)c4)CC3)nc2)c1=O (racemic) [compound 7, (±)-2-[1-(4-chlorobenzoyl)propyl]-2,4-dihydro-4-[6-[4-(3-methoxyphenyl)-1-piperidinyl]-3-pyridinyl]-3H-1,2,4-triazol-3-one]
MIC: 0.1 µM (≈ 0.0532 µg/mL)

CCC(C)(C(O)c1ccc(Br)cc1)n1nc(C)n(-c2ccc(N3CCN(c4ccc(O)cc4)CC3)cc2)c1=O (racemic) [compound 13, (±)-2-[1-[(4-bromophenyl)hydroxymethyl]-1-methylpropyl]-2,4-dihydro-4-[4-[4-(4-hydroxyphenyl)-1-piperazinyl]phenyl]-5-methyl-3H-1,2,4-triazol-3-one]
MIC: 0.1 µM (≈ 0.0593 µg/mL)

CCC(C(=O)c1ccc(Cl)cc1)n1ncn(-c2ccc(N3CCN(c4cccc(OC)c4)CC3)nc2)c1=O (racemic) [compound 4, (±)-2-[1-(4-chlorobenzoyl)propyl]-4-[6-[4-(3-methoxyphenyl)-1-piperazinyl]-3-pyridinyl]-2,4-dihydro-3H-1,2,4-triazol-3-one]
MIC: 0.01 µM (≈ 0.00533 µg/mL)

CC[C@H]([C@H](O)c1ccc(Cl)cc1)n1ccn(-c2ccc(N3CCN(c4ccc(OC)cc4)CC3)nc2)c1=O (relative stereo) [compound 38, (±)-(R*,R*)-1-[1-[(4-chlorophenyl)hydroxymethyl]propyl]-1,3-dihydro-3-[6-[4-(4-methoxyphenyl)-1-piperazinyl]-3-pyridinyl]-2H-imidazol-2-one]
MIC: 0.1 µM (≈ 0.0534 µg/mL)

CCC(C(=O)c1ccc(Cl)cc1)n1ncn(-c2ccc(N3CCN(c4ccccc4O)CC3)nc2)c1=O (racemic) [compound 29, (±)-2-[1-(4-chlorobenzoyl)propyl]-2,4-dihydro-4-[6-[4-(2-hydroxyphenyl)-1-piperazinyl]-3-pyridinyl]-3H-1,2,4-triazol-3-one]
MIC: 0.1 µM (≈ 0.0519 µg/mL)

CC[C@H]([C@H](O)c1ccc(Cl)cc1)n1ncn(-c2ccc(N3CCN(c4ccc(OC)cn4)CC3)cc2)c1=O (relative stereo) [compound 15, (±)-(RR,SS)-2-[1-[(4-chlorophenyl)hydroxymethyl]propyl]-2,4-dihydro-4-[4-[4-(5-methoxy-2-pyridinyl)-1-piperazinyl]phenyl]-3H-1,2,4-triazol-3-one]
MIC: 0.1 µM (≈ 0.0535 µg/mL)

Cc1nn(CC(O)c2ccc(OC(F)(F)F)cc2)c(=O)n1-c1ccc(N2CCN(c3ccc(O)cc3)CC2)cc1 (racemic) [compound 36, (±)-2,4-dihydro-4-[4-[4-(4-hydroxyphenyl)-1-piperazinyl]phenyl]-2-[2-hydroxy-2-[4-(trifluoromethoxy)-phenyl]ethyl]-5-methyl-3H-1,2,4-triazol-3-one]
MIC: 10 µM (≈ 5.56 µg/mL)

CCC(C(=O)c1ccc(Cl)cc1)n1ncn(-c2ccc(N3CCN(c4ccc(O)cn4)CC3)cc2)c1=O (racemic) [compound 27, (±)-2-[1-(4-chlorobenzoyl)propyl]-2,4-dihydro-4-[4-[4-(5-hydroxy-2-pyridinyl)-1-piperazinyl]phenyl]-3H-1,2,4-triazol-3-one]
MIC: 0.1 µM (≈ 0.0519 µg/mL)

CC[C@H]([C@H](O)c1ccc(Cl)cc1)n1ncn(-c2ccc(N3CCN(c4ccc(OC)c(OC)c4)CC3)nc2)c1=O (relative stereo) [compound 49, (±)-(R*,R*)-2-[1-[(4-chlorophenyl)hydroxymethyl]propyl]-4-[6-[4-(3,4-dimethoxy-phenyl)-1-piperazinyl]-3-pyridinyl]-2,4-dihydro-3H-1,2,4-triazol-3-one]
MIC: 0.01 µM (≈ 0.00565 µg/mL)

CCC(C(=O)c1ccc(Cl)cc1)n1ncn(-c2ccc(N3CCN(c4ccccc4OC)CC3)nc2)c1=O (racemic) [compound 5, (±)-2-[1-(4-chlorobenzoyl)propyl]-2,4-dihydro-4-[6-[4-(2-methoxyphenyl)-1-piperazinyl]-3-pyridinyl]-3H-1,2,4-triazol-3-one]
MIC: 0.1 µM (≈ 0.0533 µg/mL)
